Experimental data from US11279687B2, “Compounds and compositions for the inhibition of NAMPT” (Valo Health, Inc., priority 2010, dated 2022).
pIC50: −log10 of the molar value.

Legend:
A2780 cells = experiment: In-vitro cell proliferation assay (SRB), A2780 cells; assay type: cell-based; settings: Homo sapiens, A2780, 72 h, A2780 cells, 72 hours, SRB; read-out: A2780 IC50;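 also: viable cell number read as SRB absorbance, background from media-only wells subtracted, IC50 interpolated from percent inhibition at two bracketing compound concentrations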
NAMPT = NAMPT (Homo sapiens (Human), UniProt P43490); experiment: NAMPT biochemical inhibition assay (NMN quantified by mass spectrometry); settings: NAMPT biochemical inhibition; read-out: Biochem IC50
NAMPT, sequence (P43490 whole entry): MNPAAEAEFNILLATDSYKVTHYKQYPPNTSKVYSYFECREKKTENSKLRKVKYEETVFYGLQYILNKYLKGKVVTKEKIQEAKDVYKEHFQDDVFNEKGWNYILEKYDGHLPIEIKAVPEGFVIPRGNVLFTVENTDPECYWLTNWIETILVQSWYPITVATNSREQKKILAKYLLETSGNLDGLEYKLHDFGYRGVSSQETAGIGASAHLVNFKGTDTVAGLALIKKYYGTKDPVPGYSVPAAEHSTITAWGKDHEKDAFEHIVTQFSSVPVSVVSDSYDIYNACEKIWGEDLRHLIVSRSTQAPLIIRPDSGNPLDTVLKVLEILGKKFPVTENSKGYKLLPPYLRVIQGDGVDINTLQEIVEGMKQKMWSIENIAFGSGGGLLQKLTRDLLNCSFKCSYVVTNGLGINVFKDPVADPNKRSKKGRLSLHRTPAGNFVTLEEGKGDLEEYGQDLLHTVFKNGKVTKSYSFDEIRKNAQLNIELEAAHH

| pIC50 (A2780 cells) | pIC50 (NAMPT) | Compound |
| --- | --- | --- |
| 7.49 | 9.00 | Cc1ccc(NS(=O)(=O)c2ccc(NC(=O)NCc3cccnc3)cc2)c(Cl)c1 [3-{4-[(2-chloro-4-methylphenyl)sulfamoyl]phenyl}-1-(pyridin-3-ylmethyl)urea] |
| 6.47 | 8.15 | Cc1ccc(F)c(S(=O)(=O)c2ccc(NC(=O)NCc3cccnc3)cc2)c1Cl [3-{4-[(2-chloro-6-fluoro-3-methylbenzene)sulfonyl]phenyl}-1-(pyridin-3-ylmethyl)urea] |
| 6.32 | 8.30 | O=C(NCc1cccnc1)Nc1ccc(S(=O)(=O)c2ccccc2Cl)cc1 [3-{4-[(2-chlorobenzene)sulfonyl]phenyl}-1-(pyridin-3-ylmethyl)urea] |
| 7.39 | 8.52 | O=C(NCc1cccnc1)Nc1ccc(S(=O)(=O)Nc2ccccc2Cl)cc1 [3-{4-[(2-chlorophenyl)sulfamoyl]phenyl}-1-(pyridin-3-ylmethyl)urea] |
| 9.40 | 8.70 | CCOc1ccccc1S(=O)(=O)c1ccc(NC(=O)NCc2cccnc2)cc1 [3-{4-[(2-ethoxybenzene)sulfonyl]phenyl}-1-(pyridin-3-ylmethyl)urea] |
| 7.49 | 8.52 | CCOc1ccccc1NS(=O)(=O)c1ccc(NC(=O)NCc2cccnc2)cc1 [3-{4-[(2-ethoxyphenyl)sulfamoyl]phenyl}-1-(pyridin-3-ylmethyl)urea] |
| 6.77 | 8.70 | CCc1ccccc1S(=O)(=O)c1ccc(NC(=O)NCc2cccnc2)cc1 [3-{4-[(2-ethylbenzene)sulfonyl]phenyl}-1-(pyridin-3-ylmethyl)urea] |
| 6.41 | 9.00 | COc1cccc(S(=O)(=O)c2ccc(NC(=O)NCc3cccnc3)cc2)c1F [3-{4-[(2-fluoro-3-methoxybenzene)sulfonyl]phenyl}-1-(pyridin-3-ylmethyl)urea] |
| 6.51 | 8.52 | COc1ccc(S(=O)(=O)c2ccc(NC(=O)NCc3cccnc3)cc2)c(F)c1 [3-{4-[(2-fluoro-4-methoxybenzene)sulfonyl]phenyl}-1-(pyridin-3-ylmethyl)urea] |
| 6.29 | 8.70 | Cc1ccc(S(=O)(=O)c2ccc(NC(=O)NCc3cccnc3)cc2)c(F)c1 [3-{4-[(2-fluoro-4-methylbenzene)sulfonyl]phenyl}-1-(pyridin-3-ylmethyl)urea] |
| 6.80 | 8.70 | Cc1ccc(NS(=O)(=O)c2ccc(NC(=O)NCc3cccnc3)cc2)c(F)c1 [3-{4-[(2-fluoro-4-methylphenyl)sulfamoyl]phenyl}-1-(pyridin-3-ylmethyl)urea] |
| < 6.00 | 7.92 | Cc1ccc(F)c(S(=O)(=O)c2ccc(NC(=O)NCc3cccnc3)cc2)c1 [3-{4-[(2-fluoro-5-methylbenzene)sulfonyl]phenyl}-1-(pyridin-3-ylmethyl)urea] |
| 8.00 | 8.70 | COc1cccc(F)c1S(=O)(=O)c1ccc(NC(=O)NCc2cccnc2)cc1 [3-{4-[(2-fluoro-6-methoxybenzene)sulfonyl]phenyl}-1-(pyridin-3-ylmethyl)urea] |
| 6.31 | 8.52 | O=C(NCc1cccnc1)Nc1ccc(S(=O)(=O)c2ccccc2F)cc1 [3-{4-[(2-fluorobenzene)sulfonyl]phenyl}-1-(pyridin-3-ylmethyl)urea] |
| 7.41 | 9.10 | O=C(NCc1cccnc1)Nc1ccc(S(=O)(=O)Nc2ccccc2I)cc1 [3-{4-[(2-iodophenyl)sulfamoyl]phenyl}-1-(pyridin-3-ylmethyl)urea] |
| 8.15 | 8.40 | COc1ccc(C)cc1S(=O)(=O)c1ccc(NC(=O)NCc2cccnc2)cc1 [3-{4-[(2-methoxy-5-methylbenzene)sulfonyl]phenyl}-1-(pyridin-3-ylmethyl)urea] |
| 8.70 | 8.70 | COc1ccc(C)cc1NS(=O)(=O)c1ccc(NC(=O)NCc2cccnc2)cc1 [3-{4-[(2-methoxy-5-methylphenyl)sulfamoyl]phenyl}-1-(pyridin-3-ylmethyl)urea] |
